Measured values taken from US20110237626A1, “COMPOSITIONS FOR HYGIENIC HAND DISINFECTION AND DISINFECTANT HANDWASHING” (AIR LIQUIDE SANTE (INTERNATIONAL), priority 2005, published 2011).

solubility in water: 0.1 % by weight
Structure (SMILES): CCCCC(CC)COCC(O)CO (stereo not shown) [1-(2-ethylhexyl)glycerol ether, 1-(2-Ethylhexyl)-glycerol ether]
